Experiment in all cases: combination Emax (second highest fraction inhibited in the dose matrix, 72 h); higher = more inhibition; extreme values may be limits of the assay
The test system of assay [1] is BICR78 (Oral Cavity Carcinoma). The gist of the method:
(§1)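 After 24 hours at 37°C and 5% CO2 in 1536-well plates, cells in DMEM/F12 or RPMI plus 10% FBS received two-drug dose matrices for 72 hours. Viability came from CellTiter-Glo 2.0 luminescence and was scaled as inhibition, anchored at 0 by vehicle wells and at 1 by blank wells. Combination Emax is taken as the second-highest inhibition in the matrix, and Bliss excess as the observed combination effect less EA + EB − EA·EB, with EA and EB the single-agent effects.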

A further assay has as its system CS1 (Chondrosarcoma). The method, boiled down:
as §1

The test system of assay [2] is D-283MED (Other Solid Carcinomas). The method, boiled down:
as §1

For the next assay, the system named is D-392MG (Glioblastoma). The gist of the method: as §1
Assay [3] concerns EKVX (Non-Small Cell Lung Carcinoma). The gist of the method:
as §1

For assay [4], the system named is ETK-1 (Biliary Tract Carcinoma). The gist of the method:
as §1

For assay [5], the system named is GDM-1 (Acute Myeloid Leukemia). The gist of the method: as §1
For the next assay, the system named is H4 (Low Grade Glioma). The method, boiled down: as §1
The test system of assay [6] is HCT-116 (Colorectal Carcinoma). The method, boiled down: as §1
The subject of assay [7] is HLE (Hepatocellular Carcinoma). The method, boiled down: as §1
Assay [8] deals with HOP-92 (Non-Small Cell Lung Carcinoma). The method, boiled down:
as §1

Assay [9] concerns MEG-01 (Chronic Myelogenous Leukemia). The gist of the method: as §1
Assay [10] deals with NCI-H1688 (Small Cell Lung Carcinoma). The gist of the method: as §1
Assay [11] has as its system RCC10RGB (Kidney Carcinoma). The gist of the method:
as §1

The test system of assay [12] is SKN-3 (Head and Neck Carcinoma). The gist of the method: as §1
Assay [13] has as its system SLVL (B-Cell Non-Hodgkin's Lymphoma). The method, boiled down: as §1
Assay [14] deals with SNG-M (Endometrial Carcinoma). The gist of the method: as §1
The test system of another assay is Saos-2 (Osteosarcoma). The method, boiled down: as §1
Assay [15] concerns U-118-MG (Low Grade Glioma). The method, boiled down:
as §1

Assay [16] has as its system WSU-DLCL2 (B-Cell Non-Hodgkin's Lymphoma). The gist of the method: as §1

As for `Cc1cc2ncnn2cc1Nc1ncc2c(n1)n(C1CCOCC1)c(=O)n2C` [AZD7648] + CCN(CCO)CCCOc1ccc2c(Nc3cc(CC(=O)Nc4cccc(F)c4)[nH]n3)ncnc2c1 [AZD2811] (first compound max 10 µM, 7x7, partner max 1 µM), the “combination Emax” value was 0.354 in assay [1]; 0.343 in the assay with CS1 (Chondrosarcoma); 0.74 in assay [2]; 0.329 in the assay on D-392MG (Glioblastoma); 0.309 in assay [3]; 0.25 in [4]. Moreover, the “combination Emax” value in assay [5] is 0.859; in the assay with H4 (Low Grade Glioma), 0.711; in assay [6], 0.528; in assay [7], 0.433; in [8] it was 0.41; in [9], 0.507. Further, the “combination Emax” value in assay [10] was 0.201; in assay [11], 0.264; in [12], 0.128; in assay [13], 0.687; in [14] it was 0.281; with Saos-2 (Osteosarcoma), 0.45. For the same compound, the “combination Emax” value in assay [15] turned out to be 0.317; in assay [16] it was 0.476.
Regarding `Cc1cc2ncnn2cc1Nc1ncc2c(n1)n(C1CCOCC1)c(=O)n2C` [AZD7648] + CN(C)CCCOc1ccc(-c2ccc3ncc4c(c3c2)n(C2CCOCC2)c(=O)n4C)cn1 [AZD0156] (first compound max 10 µM, 7x7, partner max 1 µM), the “combination Emax” value amounted to 0.208 in [1]; 0.306 with CS1 (Chondrosarcoma); 0.496 in assay [2]; 0.301 with D-392MG (Glioblastoma); 0.315 in [3]; 0.155 in assay [4]. Besides, the “combination Emax” value in [5] turned out to be 0.657; in the assay with H4 (Low Grade Glioma), 0.448; in [6], 0.317; in [7], 0.31; in assay [8], 0.231; in [9] it was 0.361. In addition, the “combination Emax” value in [10] turned out to be 0.147; in assay [11], 0.3; in assay [12], 0.111; in [13], 0.404; in assay [14] it was 0.205; in the assay with Saos-2 (Osteosarcoma), 0.171. In addition, the “combination Emax” value in [15] amounted to 0.277; in assay [16], 0.345.
`Cc1cc2ncnn2cc1Nc1ncc2c(n1)n(C1CCOCC1)c(=O)n2C` [AZD7648] + C[C@@H]1COCCN1C2=NC(=NC(=C2)C3(CC3)[S@](=N)(=O)C)C4=C5C=CNC5=NC=C4 [AZD6738] (first compound max 10 µM, 7x7, partner max 10 µM): the “combination Emax” value stood at 0.598 in [1]; 0.591 in the assay on CS1 (Chondrosarcoma); 0.988 in assay [2]; 0.52 in the assay with D-392MG (Glioblastoma); 0.317 in assay [3]; 0.621 in assay [4]. The “combination Emax” value is 0.789 in assay [5]; 0.789 with H4 (Low Grade Glioma); 0.723 in [6]; 0.721 in assay [7]; 0.493 in [8]; 0.894 in assay [9]. Also, the “combination Emax” value came to 0.251 in assay [10]; 0.316 in [11]; 0.185 in assay [12]; 0.886 in assay [13]; 0.939 in assay [14]; 0.561 in the assay with Saos-2 (Osteosarcoma). For the same compound, the “combination Emax” value in [15] was 0.435; in [16], 0.905.
`Cc1cc2ncnn2cc1Nc1ncc2c(n1)n(C1CCOCC1)c(=O)n2C` [AZD7648] + O=C(c1cc(Cc2n[nH]c(=O)c3ccccc23)ccc1F)N1CCN(C(=O)C2CC2)CC1 [Olaparib] (first compound max 10 µM, 7x7, partner max 10 µM): the “combination Emax” value worked out at 0.182 in assay [1]; 0.221 in the assay on CS1 (Chondrosarcoma); 0.639 in assay [2]; 0.144 with D-392MG (Glioblastoma); 0.147 in assay [3]; 0.323 in assay [4]. The “combination Emax” value in [5] is 0.628; with H4 (Low Grade Glioma) it was 0.585; in [6] it was 0.234; in [7], 0.252; in assay [8] it was 0.292; in assay [9], 0.22. Also, the “combination Emax” value was 0.135 in assay [10]; 0.18 in [11]; 0.0538 in assay [12]; 0.455 in assay [13]; 0.143 in [14]; 0.14 with Saos-2 (Osteosarcoma). The entries for the “combination Emax” value in assay [15] and in [16] were 0.394 and 0.307, respectively.
`COc1cccc2c1C(=O)c1c(O)c3c(c(O)c1C2=O)C[C@@](O)(C(=O)CO)C[C@@H]3O[C@H]1C[C@H](N)[C@H](O)[C@H](C)O1` [Doxorubicin] + Cc1cc2ncnn2cc1Nc1ncc2c(n1)n(C1CCOCC1)c(=O)n2C [AZD7648] (first compound max 1 µM, 7x7, partner max 10 µM): the “combination Emax” value worked out at 0.748 in assay [1]; 0.772 in the assay with CS1 (Chondrosarcoma); 0.943 in assay [2]; 0.586 with D-392MG (Glioblastoma); 0.378 in assay [3]; 0.562 in assay [4]. In addition, the “combination Emax” value in assay [5] turned out to be 0.975; in the assay on H4 (Low Grade Glioma), 0.818; in [6], 0.918; in [7], 0.812; in assay [8], 0.547; in [9] it was 0.867. Besides, the “combination Emax” value worked out at 0.732 in assay [10]; 0.29 in [11]; 0.32 in assay [12]; 0.975 in assay [13]; 0.767 in assay [14]; 0.862 in the assay with Saos-2 (Osteosarcoma). For the same compound, the entries for the “combination Emax” value in assay [15] and in assay [16] were 0.715 and 1, respectively.
Take `COc1cccc(OCCCN)c1-c1cc(Nc2cnc(C#N)cn2)n[nH]1` [Prexasertib] + C=CCn1c(=O)c2cnc(Nc3ccc(N4CCN(C)CC4)cc3)nc2n1-c1cccc(C(C)(C)O)n1 [AZD1775] (first compound max 1 µM, partner max 1 µM): the “combination Emax” value in assay [1] is 0.713; in the assay on CS1 (Chondrosarcoma), 0.735; in assay [2], 1; in the assay on D-392MG (Glioblastoma), 0.66; in assay [3] it was 0.287; in [4], 0.666. Besides, the “combination Emax” value in [5] is 0.945; in the assay on H4 (Low Grade Glioma) it was 0.979; in [6], 0.921; in [7], 0.881; in [8] it was 0.7; in [9], 0.939. In addition, the “combination Emax” value in assay [10] is 0.838; in [11] it was 0.6; in assay [12], 0.771; in [13], 0.951; in assay [14], 0.985; in the assay on Saos-2 (Osteosarcoma), 0.935. Besides, the figures for the “combination Emax” value in [15] and in assay [16] were 0.743 and 1, respectively.
As for `COc1cccc(OCCCN)c1-c1cc(Nc2cnc(C#N)cn2)n[nH]1` [Prexasertib] + CCc1c2c(nc3ccc(O)cc13)-c1cc3c(c(=O)n1C2)COC(=O)[C@]3(O)CC [SN-38] (first compound max 1 µM, 7x7, partner max 0.3 µM), the “combination Emax” value stood at 0.845 in assay [1]; 0.882 in the assay on CS1 (Chondrosarcoma); 0.99 in [2]; 0.551 with D-392MG (Glioblastoma); 0.379 in [3]; 0.727 in [4]. For the same compound, the “combination Emax” value was 0.99 in [5]; 0.941 in the assay with H4 (Low Grade Glioma); 0.901 in assay [6]; 0.95 in [7]; 0.873 in [8]; 0.94 in assay [9]. Moreover, the “combination Emax” value in [10] was 0.941; in [11], 0.825; in assay [12], 0.885; in [13], 0.968; in [14], 0.899; in the assay with Saos-2 (Osteosarcoma), 0.887. The “combination Emax” value in assay [15] amounted to 0.986; in assay [16], 1.
